The target in the assay is T1, human DLL3 (Homo sapiens, UniProt Q9NYJ7).
T1 sequence (Q9NYJ7 27-618): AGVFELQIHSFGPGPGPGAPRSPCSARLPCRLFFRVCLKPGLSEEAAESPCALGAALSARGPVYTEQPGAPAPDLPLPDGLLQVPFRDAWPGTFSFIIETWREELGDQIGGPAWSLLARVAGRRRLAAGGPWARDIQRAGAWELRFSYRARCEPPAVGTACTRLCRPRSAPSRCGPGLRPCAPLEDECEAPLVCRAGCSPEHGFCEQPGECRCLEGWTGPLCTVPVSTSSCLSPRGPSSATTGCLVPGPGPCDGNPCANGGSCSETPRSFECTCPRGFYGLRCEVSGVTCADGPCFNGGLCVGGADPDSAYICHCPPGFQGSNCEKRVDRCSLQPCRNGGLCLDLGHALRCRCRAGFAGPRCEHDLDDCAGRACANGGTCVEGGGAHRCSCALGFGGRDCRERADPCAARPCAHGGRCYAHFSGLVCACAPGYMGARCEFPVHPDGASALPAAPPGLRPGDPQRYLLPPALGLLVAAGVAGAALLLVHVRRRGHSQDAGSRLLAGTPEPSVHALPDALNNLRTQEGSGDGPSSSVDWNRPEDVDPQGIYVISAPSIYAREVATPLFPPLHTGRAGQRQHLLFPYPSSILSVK
Nature of the assay: Affinity determination by Surface Plasmon Resonance (SPR). Format: binding. Particulars: 25° C., biotinylated human DLL3 immobilized on streptavidin sensor chip, 1:1 binding model; read-out: SPR KD. A digest of the protocol: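 Biotinylated human DLL3 was captured on a streptavidin chip with a reference surface. Compounds at several concentrations were injected at 100 μL/minute in phosphate buffer (137 mM NaCl, 2.7 mM KCl, 0.05% P20, 2% DMSO). Affinity and kinetics came from 1:1 model fits of the sensorgrams.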

pKd: −log10 of the molar value. Numbered stars: 1 amine (or outer) side, 2 acyl side, 3 side chain; on linkers, the order of the positions; unused ones are H or OH. Bridge positions count the residues as written; N and C are the ends. Square brackets hold non-standard residues; d marks the D form. Peptide text beside a SMILES is read from it. * marks the point of attachment. ξ: configuration not given here. TtdsdLys(DOTA)NH2 = NC(=O)[C@@H](CCCCNC(=O)CN1CCN(CC(=O)O)CCN(CC(=O)O)CCN(CC(=O)O)CC1)NC(=O)CCC(=O)NCCCOCCOCCOCCCN*; DOTA = O=C(O)CN1CCN(CC(=O)O)CCN(CC(=O)*)CCN(CC(=O)O)CC1; Phe(4-CF3) = N[C@@H](Cc1ccc(C(F)(F)F)cc1)C(=O)O; Trp(5-F) = N[C@@H](Cc1c[nH]c2ccc(F)cc12)C(=O)O; Phe(2-CF3) = N[C@@H](Cc1ccccc1C(F)(F)F)C(=O)O; Trp(7-aza) = N[C@@H](Cc1c[nH]c2ncccc12)C(=O)O; Pro(trans-4-F) = O=C(O)[C@@H]1C[C@@H](F)CN1; 2Nal = N[C@@H](Cc1ccc2ccccc2c1)C(=O)O; Nva(3-Et) = CCC(CC)[C@H](N)C(=O)O; ξThr(3R) = C[C@@H](O)C(N)C(=O)O; Cha = N[C@@H](CC1CCCCC1)C(=O)O; Chg = N[C@H](C(=O)O)C1CCCCC1; CH2 = C([*:1])[*:2]

The pKd is −log10 of the Kd, conventionally taken in molar units.

Regarding `CC(=O)N[C@@H](Cc1c[nH]c2ccc(F)cc12)C(=O)N[C@H](C(=O)N[C@H](C(=O)N[C@H]1CSSC[C@@H](C(=O)N[C@@H](Cc2c[nH]c3ncccc23)C(=O)N2C[C@H](F)C[C@H]2C(=O)N[C@H](CCCCNC(=O)CN2CCN(CC(=O)O)CCN(CC(=O)O)CCN(CC(=O)O)CC2)C(N)=O)NC(=O)[C@H](CC(=O)O)NC(=O)[C@H](Cc2cnc[nH]2)NC(=O)[C@H](Cc2ccc(C(F)(F)F)cc2)NC(=O)[C@H](CC(N)=O)NC(=O)[C@H](CC(N)=O)NC1=O)C1CCCCC1)[C@@H](C)O` [compound 151, Ac-(5Fluoro-W)-T-(Chg)-C(3)-N-N-(4CF3-F)-H-D-C(3)-(7Aza-W)-(trans4Fluoro-P)-[D-Lys(DOTA)]-NH2] (Ac-[Trp(5-F)]T[Chg]CNN[Phe(4-CF3)]HDC[Trp(7-aza)][Pro(trans-4-F)][dK](DOTA)-NH2; disulfide 4-10), the pKd is 8.00 to 9.00.
Consider `CC(=O)N[C@@H](Cc1c[nH]c2ccc(F)cc12)C(=O)N[C@H](C(=O)N[C@@H](Cc1ccccc1C(F)(F)F)C(=O)N[C@H]1CSSC[C@@H](C(=O)N[C@@H](Cc2c[nH]c3ncccc23)C(=O)N2C[C@H](F)C[C@H]2C(=O)N[C@H](CCCCNC(=O)CN2CCN(CC(=O)O)CCN(CC(=O)O)CCN(CC(=O)O)CC2)C(N)=O)NC(=O)[C@H](CC(=O)O)NC(=O)[C@H](Cc2cnc[nH]2)NC(=O)[C@H](Cc2ccc(C(F)(F)F)cc2)NC(=O)[C@H](CC(N)=O)NC(=O)[C@H](CC(N)=O)NC1=O)[C@@H](C)O` [compound 152, Ac-(5Fluoro-W)-T-(2CF3-F)-C(3)-N-N-(4CF3-F)-H-D-C(3)-(7Aza-W)-(trans4Fluoro-P)-[D-Lys(DOTA)]-NH2] (Ac-[Trp(5-F)]T[Phe(2-CF3)]CNN[Phe(4-CF3)]HDC[Trp(7-aza)][Pro(trans-4-F)][dK](DOTA)-NH2; disulfide 4-10), for which the pKd was 8.00 to 9.00.
As for `CC[C@H](C)[C@H](NC(=O)[C@@H](NC(=O)[C@H](Cc1c[nH]c2ccccc12)NC(C)=O)[C@@H](C)O)C(=O)N[C@H]1CSCSC[C@@H](C(=O)N[C@@H](Cc2c[nH]c3ccccc23)C(=O)N2CCC[C@H]2C(=O)N[C@H](CCCCNC(=O)CN2CCN(CC(=O)O)CCN(CC(=O)O)CCN(CC(=O)O)CC2)C(N)=O)NC(=O)[C@H](CC(=O)O)NC(=O)[C@H](Cc2cnc[nH]2)NC(=O)[C@H](Cc2c[nH]c3ccccc23)NC(=O)[C@H](CC(N)=O)NC(=O)[C@H](CC(N)=O)NC1=O` [compound 164, Ac-WTI-C(1)-NNWHD-C(1)-WP-[D-Lys(DOTA)]-NH2] (Ac-WTICNNWHDCWP[dK](DOTA)-NH2; linker 4-10 via CH2), the pKd was 8.00 to 9.00.
In the case of `CC[C@H](C)[C@H](NC(=O)[C@@H](NC(=O)[C@H](Cc1c[nH]c2ccccc12)NC(C)=O)[C@@H](C)O)C(=O)N[C@H]1CSSC[C@@H](C(=O)N[C@@H](Cc2c[nH]c3ccccc23)C(=O)N2CCC[C@H]2C(=O)NCC(=O)NCC(=O)NCCCOCCOCCOCCCNC(=O)CCC(=O)N[C@H](CCCCNC(=O)CN2CCN(CC(=O)O)CCN(CC(=O)O)CCN(CC(=O)O)CC2)C(N)=O)NC(=O)[C@H](CC(=O)O)NC(=O)[C@H](Cc2cnc[nH]2)NC(=O)[C@H](Cc2ccc3ccccc3c2)NC(=O)[C@H](CC(N)=O)NC(=O)[C@H](CC(N)=O)NC1=O` [compound 167, Ac-W-T-I-C(3)-N-N-(2Nal)-H-D-C(3)-W-P-G-G-TTDS-[D-Lys(DOTA)]-NH2] (Ac-WTICNN[2Nal]HDCWPGG-{TtdsdLys(DOTA)NH2}; disulfide 4-10), the pKd is greater than 9.00.
Under `CCC(CC)[C@H](NC(=O)C(NC(=O)[C@H](Cc1c[nH]c2ccccc12)NC(C)=O)[C@@H](C)O)C(=O)N[C@H]1CSSC[C@@H](C(=O)N[C@@H](Cc2c[nH]c3ncccc23)C(=O)N2CCC[C@H]2C(=O)N[C@H](CCCCNC(=O)CN2CCN(CC(=O)O)CCN(CC(=O)O)CCN(CC(=O)O)CC2)C(N)=O)NC(=O)[C@H](CC(=O)O)NC(=O)[C@H](Cc2cnc[nH]2)NC(=O)[C@H](Cc2ccc3ccccc3c2)NC(=O)[C@H](CC(N)=O)NC(=O)[C@H](CC(N)=O)NC1=O` (stereo partly drawn) [compound 193, Ac-W-T-(Env)-C(3)-N-N-(2Nal)-H-D-C(3)-(7-Aza-W)-P-[D-Lys(DOTA)]-NH2] (Ac-W[ξThr(3R)][Nva(3-Et)]CNN[2Nal]HDC[Trp(7-aza)]P[dK](DOTA)-NH2; disulfide 4-10) stands greater than 9.00; under `CC(=O)N[C@@H](Cc1c[nH]c2ccccc12)C(=O)NC(C(=O)N[C@H](C(=O)N[C@H]1CSSC[C@@H](C(=O)N[C@@H](Cc2c[nH]c3ncccc23)C(=O)N2CCC[C@H]2C(=O)N[C@H](CCCCNC(=O)CN2CCN(CC(=O)O)CCN(CC(=O)O)CCN(CC(=O)O)CC2)C(N)=O)NC(=O)[C@H](CC(=O)O)NC(=O)[C@H](Cc2cnc[nH]2)NC(=O)[C@H](Cc2ccc3ccccc3c2)NC(=O)[C@H](CC(N)=O)NC(=O)[C@H](C)NC1=O)C1CCCCC1)[C@@H](C)O` (stereo partly drawn) [compound 194, Ac-W-T-(Chg)-C(3)-A-N-(2Nal)-H-D-C(3)-(7-Aza-W)-P-[D-Lys(DOTA)]-NH2] (Ac-W[ξThr(3R)][Chg]CAN[2Nal]HDC[Trp(7-aza)]P[dK](DOTA)-NH2; disulfide 4-10), greater than 9.00; under `CC(=O)N[C@@H](Cc1c[nH]c2ccccc12)C(=O)N[C@H](C(=O)N[C@@H](CC1CCCCC1)C(=O)N[C@H]1CSSC[C@@H](C(=O)N[C@@H](Cc2c[nH]c3ncccc23)C(=O)N2CCC[C@H]2C(=O)N[C@H](CCCCNC(=O)CN2CCN(CC(=O)O)CCN(CC(=O)O)CCN(CC(=O)O)CC2)C(N)=O)NC(=O)[C@H](CC(=O)O)NC(=O)[C@H](Cc2cnc[nH]2)NC(=O)[C@H](Cc2ccc3ccccc3c2)NC(=O)[C@H](CC(N)=O)NC(=O)[C@H](C)NC1=O)[C@@H](C)O` [compound 195, Ac-W-T-(CHA)-C(3)-A-N-(2Nal)-H-D-C(3)-(7-Aza-W)-P-[D-Lys(DOTA)]-NH2] (Ac-WT[Cha]CAN[2Nal]HDC[Trp(7-aza)]P[dK](DOTA)-NH2; disulfide 4-10), greater than 9.00.
Under `CCC(CC)[C@H](NC(=O)[C@@H](NC(=O)[C@H](Cc1c[nH]c2ccccc12)NC(C)=O)[C@@H](C)O)C(=O)N[C@H]1CSSC[C@@H](C(=O)N[C@@H](Cc2c[nH]c3ncccc23)C(=O)N2CCC[C@H]2C(=O)N[C@H](CCCCNC(=O)CN2CCN(CC(=O)O)CCN(CC(=O)O)CCN(CC(=O)O)CC2)C(N)=O)NC(=O)[C@H](CC(=O)O)NC(=O)[C@H](Cc2cnc[nH]2)NC(=O)[C@H](Cc2ccc3ccccc3c2)NC(=O)[C@H](CC(N)=O)NC(=O)[C@H](C)NC1=O` [compound 196, Ac-W-T-(Env)-C(3)-A-N-(2Nal)-H-D-C(3)-(7-Aza-W)-P-[D-Lys(DOTA)]-NH2] (Ac-WT[Nva(3-Et)]CAN[2Nal]HDC[Trp(7-aza)]P[dK](DOTA)-NH2; disulfide 4-10) stands greater than 9.00.
Consider `CC(=O)N[C@@H](Cc1c[nH]c2ccccc12)C(=O)N[C@H](C(=O)N[C@H](C(=O)N[C@H]1CSSC[C@@H](C(=O)N[C@@H](Cc2c[nH]c3ncccc23)C(=O)N2CCC[C@H]2C(=O)N[C@H](CCCCNC(=O)CN2CCN(CC(=O)O)CCN(CC(=O)O)CCN(CC(=O)O)CC2)C(N)=O)NC(=O)[C@H](CC(=O)O)NC(=O)[C@H](Cc2cnc[nH]2)NC(=O)[C@H](Cc2ccc3ccccc3c2)NC(=O)[C@H](C)NC(=O)[C@H](CC(N)=O)NC1=O)C1CCCCC1)[C@@H](C)O` [compound 197, Ac-W-T-(Chg)-C(3)-N-A-(2Nal)-H-D-C(3)-(7-Aza-W)-P-[D-Lys(DOTA)]-NH2] (Ac-WT[Chg]CNA[2Nal]HDC[Trp(7-aza)]P[dK](DOTA)-NH2; disulfide 4-10), for which the pKd is greater than 9.00.
Consider `CC(=O)N[C@@H](Cc1c[nH]c2ccccc12)C(=O)N[C@H](C(=O)N[C@@H](CC1CCCCC1)C(=O)N[C@H]1CSSC[C@@H](C(=O)N[C@@H](Cc2c[nH]c3ncccc23)C(=O)N2CCC[C@H]2C(=O)N[C@H](CCCCNC(=O)CN2CCN(CC(=O)O)CCN(CC(=O)O)CCN(CC(=O)O)CC2)C(N)=O)NC(=O)[C@H](CC(=O)O)NC(=O)[C@H](Cc2cnc[nH]2)NC(=O)[C@H](Cc2ccc3ccccc3c2)NC(=O)[C@H](C)NC(=O)[C@H](CC(N)=O)NC1=O)[C@@H](C)O` [compound 198, Ac-W-T-(CHA)-C(3)-N-A-(2Nal)-H-D-C(3)-(7-Aza-W)-P-[D-Lys(DOTA)]-NH2] (Ac-WT[Cha]CNA[2Nal]HDC[Trp(7-aza)]P[dK](DOTA)-NH2; disulfide 4-10), for which the pKd is greater than 9.00.
Regarding `CCC(CC)[C@H](NC(=O)[C@@H](NC(=O)[C@H](Cc1c[nH]c2ccccc12)NC(C)=O)[C@@H](C)O)C(=O)N[C@H]1CSSC[C@@H](C(=O)N[C@@H](Cc2c[nH]c3ncccc23)C(=O)N2CCC[C@H]2C(=O)N[C@H](CCCCNC(=O)CN2CCN(CC(=O)O)CCN(CC(=O)O)CCN(CC(=O)O)CC2)C(N)=O)NC(=O)[C@H](CC(=O)O)NC(=O)[C@H](Cc2c[nH]cn2)NC(=O)[C@H](Cc2ccc3ccccc3c2)NC(=O)[C@H](C)NC(=O)[C@H](CC(N)=O)NC1=O` [compound 199, Ac-W-T-(Env)-C(3)-N-A-(2Nal)-H-D-C(3)-(7-Aza-W)-P-[D-Lys(DOTA)]-NH2] (Ac-WT[Nva(3-Et)]CNA[2Nal]HDC[Trp(7-aza)]P[dK](DOTA)-NH2; disulfide 4-10), the negative-log Kd (pKd) was greater than 9.00.

These data come from patent US20250011368A1, “DLL3 TARGETING PEPTIDES AND CONSTRUCTS THEREOF” (MARIANA ONCOLOGY INC., priority 2023, published 2025).
